Test results: paper PMC6652808, “The Inhibitory Effect of GlmU Acetyltransferase Inhibitor TPSA on Mycobacterium tuberculosis May Be Affected Due to Its Methylation by Methyltransferase Rv0560c” (Frontiers in Cellular and Infection Microbiology, 2019)
pIC50, pKi: −log10 of the molar value. Like-named read-outs stand apart in the source and are kept apart here.

What was measured:
Assay in all cases: biochemical
GlmU [1] = molecular target: T1, GlmU (Mycobacterium tuberculosis, UniProt P9WMN3); parameters: DTNB colorimetric assay of GlmU acetyltransferase activity, absorbance at 405 nm
GlmU [2] = molecular target: T1, GlmU; parameters: Inhibition constants from double reciprocal plots, DTNB acetyltransferase assay with varied substrate
GlmU [3] = molecular target: T1, GlmU; parameters: Inhibition constants from double reciprocal plots, DTNB acetyltransferase assay with varied substrate; remark: listed apart in the source
GlmU [4] = molecular target: T1, GlmU; parameters: Inhibition constants from double reciprocal plots, DTNB acetyltransferase assay with varied substrate; remark: listed apart in the source

T1 sequence (P9WMN3 2-495): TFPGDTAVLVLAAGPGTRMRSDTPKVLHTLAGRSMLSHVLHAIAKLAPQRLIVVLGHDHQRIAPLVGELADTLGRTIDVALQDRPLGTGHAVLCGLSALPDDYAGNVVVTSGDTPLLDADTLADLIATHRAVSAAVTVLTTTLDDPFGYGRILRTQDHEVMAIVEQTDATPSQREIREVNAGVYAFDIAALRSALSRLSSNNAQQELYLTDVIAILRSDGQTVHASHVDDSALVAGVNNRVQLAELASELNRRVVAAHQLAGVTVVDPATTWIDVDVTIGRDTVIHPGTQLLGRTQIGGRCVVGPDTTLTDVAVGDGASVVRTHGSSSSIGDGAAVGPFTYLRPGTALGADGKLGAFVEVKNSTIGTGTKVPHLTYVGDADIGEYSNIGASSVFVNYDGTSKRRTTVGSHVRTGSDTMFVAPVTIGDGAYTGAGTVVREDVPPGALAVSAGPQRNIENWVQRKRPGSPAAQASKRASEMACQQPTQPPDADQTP

Question: With Cc1ccc(C)n1-c1ccsc1C(=O)O [MPTC, 3-(2,5-dimethyl-1H-pyrrol-1-yl)thiophene-2-carboxylic acid] as the compound, how does the pIC50 (GlmU [1]) read?
Answer: 3.80

Question: With O=C1CC(=O)c2c1cccc2[N+](=O)[O-] [NID, 4-nitroindane-1,3-dione] as the compound, how does the pIC50 (GlmU [1]) read?
Answer: 3.91

Question: With O=C1NC(=S)SC1=Cc1ccc(OCc2ccc([N+](=O)[O-])cc2)cc1 [NBTT, 5-{4-[(4-nitrobenzyl)oxy]benzylidene}-2-thioxo-1,3-thiazolan-4-one] as the compound, how does the pKi (GlmU [2]) read?
Answer: 4.38

Question: And the pIC50 (GlmU [1])?
Answer: 4.19

Question: What about the pKi (GlmU [3]) of the same compound?
Answer: 4.40

Question: With O=c1oc2ccccc2c2c1Sc1ccccc1N2 [BCTZ, 6,12-dihydrobenzo[b]chromeno[4,3-e][1,4]thiazin-6-one] as the compound, how does the pKi (GlmU [2]) read?
Answer: 4.08

Question: And the pIC50 (GlmU [1])?
Answer: 4.21

Question: What about the pKi (GlmU [4]) of the same compound?
Answer: 4.09

Question: How did the pKi (GlmU [2]) turn out when O=C1C=CC(=O)N1c1cccc(N2C(=O)C=CC2=O)c1 [DHPP, 1-[3-(2,5-dioxo-2,5-dihydro-1H-pyrrol-1-yl)phenyl]-2,5-dihydro-1H-pyrrole-2,5-dione] was run?
Answer: 4.58

Question: And the pIC50 (GlmU [1])?
Answer: 4.99

Question: And the pKi (GlmU [3])?
Answer: 4.58
